Data taken from patent publication US9850241B2, “Azaindole acetic acid derivatives and their use as prostaglandin D2 receptor modulators” (IDORSIA PHARMACEUTICALS LTD, priority 2014, dated 2017).
pIC50: −log10 of the molar value.

Experiments:
[1] = target: T1, hCRTH2 receptor (Homo sapiens, UniProt Q9Y5Y4); assay: hCRTH2 receptor membranes radioligand displacement assay (3H-PGD2); type: binding; conditions: HEK293-hCRTH2 membranes, 3H-PGD2 2.5 nM, 0.1% BSA
T1 construct: expressed in transfected cells; host or cells: HEK293 (recombinant HEK293-hCRTH2), membrane fragments
T1 sequence (Q9Y5Y4 1-395): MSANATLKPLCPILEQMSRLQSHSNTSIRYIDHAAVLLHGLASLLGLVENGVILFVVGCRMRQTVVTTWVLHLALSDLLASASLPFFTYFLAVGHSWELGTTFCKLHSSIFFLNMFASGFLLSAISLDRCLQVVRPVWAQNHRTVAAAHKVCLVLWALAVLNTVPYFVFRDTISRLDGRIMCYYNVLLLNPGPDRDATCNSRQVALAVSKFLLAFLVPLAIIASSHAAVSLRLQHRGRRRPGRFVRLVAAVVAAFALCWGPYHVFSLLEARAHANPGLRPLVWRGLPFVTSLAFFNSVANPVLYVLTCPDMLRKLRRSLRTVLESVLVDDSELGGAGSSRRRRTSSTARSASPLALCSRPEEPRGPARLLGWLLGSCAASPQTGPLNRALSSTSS
Protocol: Preparation of hCRTH2 Receptor Membranes and Radioligand Displacement Assay:
(§1) First, recombinant HEK293-hCRTH2 cells were detached from culture plates into 5 ml buffer A/plate (Buffer A: 5 mM Tris, 1 mM MgCl2-6H2O pH=7.4) using a rubber policeman. Cells were then transferred into centrifugation tubes and centrifuged for 5 min at 400 g. The cell pellet was resuspended in the same buffer and tubes were frozen at 80° C. Cells were thawed and membrane fragments were generated by homogenization using a polytron homogenizer (30 seconds). The membrane fragments were then centrifuged at 3000 g for 20 minutes and resuspended in buffer C (Buffer C: 75 mM Tris, 25 mM MgCl2, 250 mM Saccharose pH 7.4). Aliquots of membrane fragements were stored at −20° C.
Binding assay was performed in a final assay volume of 250 μl. First, 25 μl of test compound, previously diluted in Binding-Buffer (Binding-Buffer: 50 mM Tris-Base, 100 mM NaCl, 1 mM EDTA, 0.1% BSA (protease free), 0.01% NaN3, 10 mM MnCl2 pH 7.0) was placed into each well. After addition of 75 μl Binding-Buffer, 50 μl of the radioligand ^3H-PGD2 (at 2.5 nM (220.000 dpm/well) from ANAWA ART0662) was added to each well. Binding assay was started by addition of 100 μl CRTH2 membrane fragments, reaching a final concentration of 20 μg/well. For non-specific binding, PGD2 was added to the reaction mixture to […] final concentration. This assay mix was incubated for 90 minutes at room temperature and then filtered through a GF/C filter 96-well plate which was pre-soaked for 3 hours in 0.5% polyethyleneimine (PEI). The filter-wells were washed three times with ice cold Binding-Buffer. Then, 40 μl of Microscint-40 (Packard) was added to each well and the retained radioactivity quantified in a Topcount (Packard).

[2] = tested on: primary cultured rat hepatocytes; assay: In vitro cytotoxicity in primary cultured rat hepatocytes; type: cell-based; conditions: 24 h treatment, cell morphology and LDH leakage, highest concentration 300 μM; for LCC (lowest cytotoxic concentration): "300 s" = only slight cytotoxicity at the highest test concentration
Text: In Vitro Cytotoxicity in Primary Cultured Rat Hepatocytes
Adult male Wistar rats were narcotized with sodium pentobarbital and hepatocytes were isolated according to a standard procedure, i.e. by in situ perfusion of the liver with a collagenase solution. The viability of the purified hepatocytes, checked by the trypan blue dye exclusion method was greater than 85%. The isolated hepatocytes were resuspended in standard Williams Medium E, without phenol red, supplemented (WME supp.) with transferrin (100 μg/ml), triiodothyronine (10 μg/ml), gentamicin (50 μg/ml), hydrocortison hemisuccinate (13.36 μg/ml), glucagon (5 μg/ml), HEPES (10 mM), inosin (10 μ/ml), insulin (10 μg/ml), streptomycin (100 μg/ml) and penicillin (100 U/ml) and 10% fetal bovine serum (FBS). The cells were plated in collagen-coated 24-well plates at an initial density of 2×10^5 cells/well. After 4 h for attachment to the culture-plates, the medium was aspirated and replaced by fresh WME supp. without FBS containing the test compounds and incubated for 24 h at 37° C. in a […] and 5% CO2 atmosphere. For each experiment, i.e., with each batch of hepatocytes, treatments with the test compounds were done in quadriplicate. Quadriplicate controls (treatment with the vehicle only) were also present on each culture plate.
Stock solutions of the test compounds were prepared in DMSO a few hours before treatment start. Appropriate dilutions of these stock solutions were added to the culture media just prior to the treatment in order to give final concentrations of 0, 3, 10, 30, 100 and 300 μM. The final concentration of the vehicle DMSO was 1% (v/v).
The morphology of the hepatocyte monolayers was monitored by light microscopy after 24 hours of exposure to the test compounds. Treatment related effects are described according to the following grading: • 0 No morphological alterations observed upon treatment when compared to the control cultures • 1-3 Treatment resulting in any morphological changes, e.g. intracellular granulation, vacuolization or cell death. Depending on the severity, these changes were regarded as slight (1), moderate (2) or strong (3). • K Treatment resulting in 100% dead cells and/or the complete detachment of the monolayer yielding a clear cell-free dish.
After 24 h treatment of the hepatocyte cultures, aliquots of culture medium were carefully collected and used for the analysis of lactate dehydrogenase (LDH) activity by spectrophotometry using the LDH cytotoxicity detection kit from Clontech (cat No. 630117, Mountain View, Calif., USA). For each experiment, additional cultures were used for the determination of total intracellular LDH activity at treatment start. For this purpose, 4 wells of cell culture per experiment were washed with cold saline before treatment start, sonicated in fresh medium and the homogenate was analyzed for total LDH activity. Enzyme activities in the culture media were assessed and expressed as percentage of the total activity present in the cultured hepatocytes at the beginning of the treatments.
The lowest cytotoxic concentration (LCC) and the no effect concentration (NoEC) are given for each compound, based on cell morphology and LDH leakage after 24 h treatment. LCC is defined as the lowest concentration of the test compound leading to a clear effect on the cultured rat hepatocytes (morphology grading 2 or 2-fold increase in LDH leakage). A LCC value of >300 μM indicates the absence of effect on both endpoints at the highest test concentration of 300 μM. […] NoEC is defined as the highest test concentration of the compound which was without an effect on the cultured rat hepatocytes (morphology and LDH leakage). • 3 . Results

[3] = tested on: eosinophils activated by PGD2; assay: Eosinophil shape change assay with human plasma; type: cell-based; conditions: 50% human plasma, PGD2 100 nM, shape change by forward-scatter
Protocol: Eosinophil Shape Change Assay with human Plasma
After obtaining informed consent, blood samples were drawn by venipuncture according to the protocol approved by the ethics committee of Basel, Switzerland. Polymorphonuclear leukocytes (containing eosinophils, basophils and neutrophils) were isolated using the Polymorphprep™ method (Axis-Shield). In brief, anticoagulated whole blood was layered onto a Polymorphprep gradient (density 1.113 g/ml) and centrifuged at 500 g for 30 min. The polymorphonuclear cell fraction was harvested and depleted for erythrocytes by hypotonic saline lysis. […]
Immediately after fixation with paraformaldehyde, the samples were analyzed by FACSCanto flow cytometer (BD Biosciences) and target cells were identified by their forward-scatter (FSC) and side-scatter (SSC) characteristics. […] Shape change responses, indicative of eosinophil activation, were quantified as the percent of cells with an increased forward-scatter.

[4] = target: T1, hCRTH2 receptor; assay: Radioligand displacement assay in presence of human serum albumin (HSA); conditions: Binding buffer with 0.5% HSA instead of 0.1% BSA, 3H-PGD2 2.5 nM
Protocol: as §1
Binding assay was performed in a final assay volume of 250 μl. […] After addition of 75 μl Binding-Buffer, 50 μl of the radioligand ^3H-PGD2 (at 2.5 nM (220.000 dpm/well) from ANAWA ART0662) was added to each well. Binding assay was started by addition of 100 μl CRTH2 membrane fragments, reaching a final concentration of 20 μg/well. For non-specific binding, PGD2 was added to the reaction mixture to […] final concentration. […] Then, 40 μl of Microscint-40 (Packard) was added to each well and the retained radioactivity quantified in a Topcount (Packard). […]

Row | Structure (SMILES) | pIC50 [1] | NoEC (no effect concentration) [2] [µM] | LCC (lowest cytotoxic concentration) [2] | pIC50 [3] | pIC50 [4]
1 | CN(c1nc2cc(Cl)ccc2o1)C1CCc2c(c3ncccc3n2CC(=O)O)C1 (stereo not shown) [Example 2, 2-(8-((5-chlorobenzo[d]oxazol-2-yl)(methyl)amino)-6,7,8,9-tetrahydro-5H-pyrido[3,2-b]indol-5-yl)acetic acid] | 7.46 |  |  |  | 
2 | CN(c1nc2cc(F)ccc2o1)C1CCc2c(c3ncccc3n2CC(=O)O)C1 (stereo not shown) [drawing 13] |  | 100 | 300 s |  | 
3 | CN(c1nc2cc(F)ccc2o1)C1CCc2c(c3ncccc3n2CC(=O)O)C1 (stereo not shown) [Example 3, 2-(8-((5-fluorobenzo[d]oxazol-2-yl)(methyl)amino)-6,7,8,9-tetrahydro-5H-pyrido[3,2-b]indol-5-yl)acetic acid] | 7.51 |  |  |  | 
4 | CN(c1nc2ccc(Cl)cc2o1)C1CCc2c(c3ncccc3n2CC(=O)O)C1 (stereo not shown) [Example 1, 2-(8-((6-chlorobenzo[d]oxazol-2-yl)(methyl)amino)-6,7,8,9-tetrahydro-5H-pyrido[3,2-b]indol-5-yl)acetic acid] | 7.96 |  |  | 7.57 | 7.51
5 | CN(c1nc2ccc(Cl)cc2o1)C1CCc2c(c3ncccc3n2CC(=O)O)C1 (stereo not shown) [drawing 11] |  | >300 | >300^ μM |  | 
6 | CN(c1nc2ccc(Cl)cc2o1)[C@H]1CCc2c(c3cc(F)ccc3n2CC(=O)O)C1 |  | 30 | 100^ μM |  | 
7 | CN(c1nc2cc(Cl)ccc2o1)C1CCc2c(c3ncccc3n2CC(=O)O)C1 (stereo not shown) [drawing 12] |  | 100 | 300 s |  | 
